Assay results: PubChem BioAssay (NCI)
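All cell lines were grown in 96-well plates and treated with compound for 48 hours. The concentration for 50% growth inhibition is given as GI50. Definition used: TGI = concentration required for complete inhibition of growth.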

Legend:
Test in all cases: NCI anticancer screen, dose series, 48 h
[1] = system: IGROV1 ovarian
[2] = system: K-562 leukemia
[3] = system: NCI-H226 lung
[4] = system: SF-268 CNS
[5] = system: SF-539 CNS
[6] = system: SK-OV-3 ovarian
[7] = system: SW-620 colon
[8] = system: UO-31 renal
[9] = system: NCI/ADR-RES ovarian
[10] = system: PC-3 prostate

SMILES | TGI [1] | TGI [2] | TGI [3] | TGI [4] | TGI [5] | TGI [6] | TGI [7] | TGI [8] | TGI [9] | TGI [10] | GI50 [1] | GI50 [2] | GI50 [9] | GI50 [10] | GI50 [4] | GI50 [5] | GI50 [6] | GI50 [7] | GI50 [8] | GI50 [3]
CCCCCCCCC/C=C1\CCC(CN(C)C)C1=O (stereo unspecified) | 6.53 µM | 7.53 µM | 23.9 µM | 3.71 µM | 3.18 µM | 32 µM | 3.08 µM | 4.04 µM | – | – | – | – | – | – | – | – | – | – | – | –
Oc1c(Cl)c(Cl)c(O)c2c1CCCC2 | – | – | – | 24.8 µM | 23.5 µM | 27.2 µM | 3.92 µM | 5.28 µM | 38 µM | 36.7 µM | – | – | – | – | – | – | – | – | – | –
COc1cccc(NC(=O)CC(=O)N2N=C(n3ccc4ccccc43)CC2c2ccccc2)c1 (stereo unspecified) | > 100 µM | > 100 µM | – | > 100 µM | > 100 µM | > 100 µM | > 100 µM | > 100 µM | – | – | – | – | – | – | – | – | – | – | – | –
COc1cc([N+](=O)[O-])c(OC)cc1-c1nc2sccn2c1/C=N/N=C(N)N | 50 µM | > 100 µM | – | 35.3 µM | 46.5 µM | 94.8 µM | > 100 µM | > 100 µM | > 100 µM | > 100 µM | 10.4 µM | 1.03 µM | 51.1 µM | 24.2 µM | 4.86 µM | 12 µM | 36.5 µM | 15 µM | 42.5 µM | –
O=C(Nc1ccc(Oc2cccc(F)c2)c(Cl)c1)c1cnccn1 | > 50 µM | > 50 µM | > 50 µM | > 50 µM | > 50 µM | > 50 µM | > 50 µM | > 50 µM | – | – | 1.83 µM | 0.242 µM | – | – | 7.81 µM | 1.35 µM | 10.8 µM | 0.366 µM | 2.93 µM | 2.6 µM
COc1cccc(NC(=O)CC(=O)N2N=C(N3c4ccccc4Sc4ccccc43)CC2c2ccccc2)c1 (stereo unspecified) | > 100 µM | – | > 100 µM | > 100 µM | > 100 µM | > 100 µM | > 100 µM | > 100 µM | – | – | – | – | – | – | – | – | – | – | – | –
O=C(O)C(CS)NCc1c2ccccc2nc2ccccc12 (stereo unspecified) | > 100 µM | > 100 µM | > 100 µM | > 100 µM | > 100 µM | > 100 µM | > 100 µM | 64.2 µM | – | – | – | – | – | – | – | – | – | – | – | –
COc1ccc(N(/C=C/C(=O)C(F)(F)F)CC(=O)c2ccc(F)cc2)cc1 | 30.7 µM | – | 33.3 µM | 45.2 µM | 52 µM | > 100 µM | > 100 µM | > 100 µM | 87.4 µM | 85.7 µM | 13 µM | – | 31.2 µM | 23.1 µM | 20.3 µM | 21.4 µM | 42.9 µM | 35 µM | 36.3 µM | 12.1 µM
Cc1nn(-c2ccc([N+](=O)[O-])cc2)c2ncnc(N/N=C/c3ccccc3O)c12 | 4.31 µM | > 100 µM | > 26.2 µM | > 100 µM | 1.77 µM | > 22.1 µM | – | – | 3.66 µM | > 100 µM | 0.462 µM | 0.448 µM | 0.337 µM | 0.587 µM | 0.313 µM | 0.424 µM | 0.497 µM | – | – | 2.56 µM
[O-]c1ccccc1/C=N/C(/N=C/c1ccccc1[O-])c1ccccc1O.[O-]c1ccccc1/C=N/C(/N=C/c1ccccc1[O-])c1ccccc1O.[Zr+4] | > 100 µM | > 100 µM | – | > 100 µM | > 100 µM | > 100 µM | > 100 µM | 98.7 µM | > 100 µM | > 100 µM | 56.4 µM | 44.3 µM | > 100 µM | 50.9 µM | 28 µM | 17.8 µM | 23.1 µM | 26.6 µM | 14.4 µM | –
CC(=O)O[C@H]1CCC2[C@@H]3CCC4c5nonc5CC[C@]4(C)C3CC[C@@]21C (stereo partly specified) | > 100 µM | > 100 µM | > 10 µM | > 10 µM | > 10 µM | > 10 µM | > 100 µM | > 10 µM | – | – | > 100 µM | > 100 µM | – | – | – | – | – | > 100 µM | – | –
COC(=O)C1=C(C)NC(C)=C(C(=O)OCC(C)C)C1c1ccccc1[N+](=O)[O-] (stereo unspecified) | 25.9 µM | – | 15.1 µM | 22.7 µM | 16.8 µM | 17.4 µM | 11.4 µM | 7.07 µM | 16.8 µM | 16.9 µM | 5.55 µM | – | 2.07 µM | 3.54 µM | 7.8 µM | 5.3 µM | 4.65 µM | 3.11 µM | 1.73 µM | 3.75 µM
CC(C)(c1ccccc1)c1ccc(Oc2ccc(C#N)c(C#N)c2)cc1 | > 100 µM | > 100 µM | – | > 100 µM | > 100 µM | > 100 µM | > 100 µM | 40.5 µM | – | – | > 100 µM | – | – | – | – | > 100 µM | > 100 µM | – | – | –
CCc1ccccc1NC(=O)/C(N=O)=C(/C)O | > 100 µM | > 100 µM | > 100 µM | > 100 µM | > 100 µM | > 100 µM | > 100 µM | > 100 µM | – | – | – | – | – | – | – | – | – | – | – | –
O=S(=O)(/C=C/CS(=O)(=O)c1ccccc1)c1ccccc1 | > 100 µM | 98.4 µM | 61.9 µM | > 100 µM | 43.6 µM | 87 µM | 45.7 µM | > 100 µM | – | – | – | – | – | – | – | – | – | – | – | –
COc1ccc(C(=O)/C=C/c2cccc(Nc3ccnc4cc(Cl)ccc34)c2)cc1 | 6.53 µM | 18.1 µM | > 100 µM | – | 4.3 µM | 7.98 µM | 20 µM | – | – | > 100 µM | 1.44 µM | 1.64 µM | – | 2.51 µM | – | 1.7 µM | 2.22 µM | 1.98 µM | – | 1.78 µM
CN(C)C(=O)c1cnc2oc3ccc(O)cc3c2c1-c1ccccc1 | > 25 µM | > 25 µM | – | > 25 µM | – | > 25 µM | > 25 µM | > 25 µM | > 25 µM | > 25 µM | > 25 µM | > 25 µM | > 25 µM | 16.6 µM | 20.2 µM | – | 24.6 µM | > 25 µM | 20.5 µM | –
Cc1nn(-c2ccc(Cl)cc2)c2nc3c(nc12)C(=O)C(=O)c1ccccc1-3 | 47.3 µM | – | 30.1 µM | > 100 µM | 9.3 µM | > 100 µM | 20.9 µM | 7.14 µM | > 100 µM | > 100 µM | 5.46 µM | – | 3.92 µM | 2.31 µM | 12.4 µM | 3.14 µM | > 100 µM | 3.25 µM | 1.82 µM | 7.65 µM
